Laboratory results taken from article PMC5715060, “Key site residues of pheromone-binding protein 1 involved in interacting with sex pheromone components of Helicoverpa armigera” (Scientific Reports, 2017).

Experiments:
HarmPBP1 mutant F119A = HarmPBP1 mutant F119A (Helicoverpa armigera, UniProt F5ANH9, F146A); experiment: Fluorescence binding assay (1-NPN probe), mutant F119A
Description: (§1) Fluorescence binding assays were performed in a reaction system at pH7.4. Probed by 1-NPN, the maximum emission wavelengths of F12A, F36A, W37A, F119A and Q64A were in the range of 390–410 nm, which are similar to that of HarmPBP1 (400 nm).
(§2) Four mutations of HarmPBP1, F12A (mutating phenylalanine to alanine at position 12), F36A (mutating phenylalanine to alanine at position 36), W37A (mutating tryptophan to alanine at position 37) and F119A (mutating phenylalanine to alanine at position 119) were generated by using the Quick-change lightning site-directed mutagenesis kit (Stratagene, USA), and a random mutation, Q64A (mutating glutanine to alanine at position 64) was set as control. The pGEM-T Easy/HarmPBP1 construct was used as template, and the specific primers designed for mutations were also listed in Table 1. The PCR conditions were 95 °C for 30 s, followed by 18 cycles of 95 °C for 30 s, 60 °C for 1 min, 68 °C for 4 min. Valid mutants were sub-cloned into pGEM-T easy vector (Promega, USA). Same expression vector and competent cells were used as the HarmPBP1. The recombinant mutant protein prokaryotic expression and purification were conducted as mentioned above.
(§3) Fluorescence binding assays were conducted on the F-380 fluorescence spectrophotometer (Gangdong Sci. & Tech, Tianjin, China) in a 1-cm light path quartz cuvette to further investigate the binding abilities of the principal pheromone components of H. armigera, Z11-16:Ald and Z9-16:Ald, to mutants. The fluorescent probe N-phenyl- 1-naphthylamine (1-NPN) was dissolved in methanol to yield a 1 mM stock solution. Both of the excitation and emission slit widths were 10 nm. Fluorescence of 1-NPN was excited at 337 nm and the emission spectra were recorded between 390 and 490 nm. Z11-16:Ald and Z9-16:Ald were purchased from Sigma-Aldrich (purity >98%). All chemicals used in this study were dissolved in HPLC purity grade methanol. Fluorescence measurements were performed according to Gu et al.[11]. Dissociation constants of the competitors were calculated from the corresponding IC50 (the ligand concentration displacing 50% of the NPN fluorescence intensity of the HarmPBP1/1-NPN complex) values, using the equation: Ki = [IC50]/(1 + [1-NPN]/K1-NPN), where [1-NPN] is the free concentration of 1-NPN and K1-NPN is the dissociation constant of the HarmPBP1/1-NPN complex.

HarmPBP1 (wild-type) = HarmPBP1 (wild-type) (Helicoverpa armigera, UniProt F5ANH9); experiment: Fluorescence binding assay (1-NPN probe), wild-type HarmPBP1; conditions: for Ki / IC50: wild-type HarmPBP1, pH 7.4; for Ki: calculated from IC50, Ki = [IC50]/(1 + [1-NPN]/K1-NPN), read-out: Ki, dissociation constant; for IC50: mean ± S.E.M, three replicates, read-out: IC50, ligand concentration displacing 50% of the fluorescence intensity of the protein/1-NPN complex
Sequence of HarmPBP1 (wild-type) (F5ANH9 entry or part of it): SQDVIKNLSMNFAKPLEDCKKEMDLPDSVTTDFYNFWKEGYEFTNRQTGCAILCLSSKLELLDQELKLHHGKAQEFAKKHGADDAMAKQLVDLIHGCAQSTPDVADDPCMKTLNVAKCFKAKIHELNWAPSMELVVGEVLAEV
Description: as §1, §3

HarmPBP1 mutant F12A = HarmPBP1 mutant F12A (Helicoverpa armigera, UniProt F5ANH9, F39A); experiment: Fluorescence binding assay (1-NPN probe), mutant F12A
Sequence of HarmPBP1 mutant F12A (F5ANH9 entry or part of it F39A): as the sequence (F5ANH9 entry or part of it) above, with F12A counted along it
Description: as §1, §2, §3

HarmPBP1 mutant W37A = HarmPBP1 mutant W37A (Helicoverpa armigera, UniProt F5ANH9, W64A); experiment: Fluorescence binding assay (1-NPN probe), mutant W37A
Sequence of HarmPBP1 mutant W37A (F5ANH9 entry or part of it W64A): as the sequence (F5ANH9 entry or part of it) above, with W37A counted along it
Description: as §1, §2, §3

HarmPBP1 mutant F36A = HarmPBP1 mutant F36A (Helicoverpa armigera, UniProt F5ANH9, F63A); experiment: Fluorescence binding assay (1-NPN probe), mutant F36A
Sequence of HarmPBP1 mutant F36A (F5ANH9 entry or part of it F63A): as the sequence (F5ANH9 entry or part of it) above, with F36A counted along it
Description: as §1, §2, §3

HarmPBP1 mutant Q64A = HarmPBP1 mutant Q64A (Helicoverpa armigera, UniProt F5ANH9, Q91A); experiment: Fluorescence binding assay (1-NPN probe), control mutant Q64A
Sequence of HarmPBP1 mutant Q64A (F5ANH9 entry or part of it Q91A): as the sequence (F5ANH9 entry or part of it) above, with Q64A counted along it
Description: as §1, §2, §3

Sequence of HarmPBP1 mutant F119A (F5ANH9 entry or part of it F146A): as the sequence (F5ANH9 entry or part of it) above, with F119A counted along it

Compound	Kd (HarmPBP1 mutant F119A) [nM]	Kd (HarmPBP1 (wild-type)) [nM]	Kd (HarmPBP1 mutant F12A) [nM]	Kd (HarmPBP1 mutant W37A) [nM]	Kd (HarmPBP1 mutant F36A) [nM]	Kd (HarmPBP1 mutant Q64A) [nM]	IC50 (HarmPBP1 mutant F119A) [nM]	Ki (HarmPBP1 mutant F119A) [nM]	Ki (HarmPBP1 (wild-type)) [nM]	IC50 (HarmPBP1 (wild-type)) [nM]	IC50 (HarmPBP1 mutant F12A) [nM]	Ki (HarmPBP1 mutant F12A) [nM]	IC50 (HarmPBP1 mutant W37A) [nM]	Ki (HarmPBP1 mutant W37A) [nM]	IC50 (HarmPBP1 mutant F36A) [nM]	Ki (HarmPBP1 mutant F36A) [nM]	IC50 (HarmPBP1 mutant Q64A) [nM]	Ki (HarmPBP1 mutant Q64A) [nM]
c1ccc(Nc2cccc3ccccc23)cc1 [1-NPN, N-phenyl-1-naphthylamine]	1960 ± 160	1790 ± 140	2100 ± 170	1870 ± 180	4050 ± 690	2390 ± 190	–	–	–	–	–	–	–	–	–	–	–	–
CCCCCC/C=C\CCCCCCCC=O [Z9-16:Ald, (Z)-9-hexadecenal]	–	–	–	–	–	–	6910 ± 490	4610 ± 330	560 ± 50	870 ± 80	4630 ± 270	3060 ± 220	2220 ± 190	1490 ± 130	980 ± 150	720 ± 110	840 ± 60	580 ± 30
CCCC/C=C\CCCCCCCCCC=O [Z11-16:Ald, (Z)-11-hexadecenal]	–	–	–	–	–	–	7660 ± 560	5110 ± 470	670 ± 50	1030 ± 80	4690 ± 330	3100 ± 130	2910 ± 120	1950 ± 80	1040 ± 60	760 ± 80	1120 ± 210	770 ± 130
